Measurements reported in ChEMBL document CHEMBL1131923, “Synthesis and structure-activity relationships of a series of novel thiazoles as inhibitors of aminoacyl-tRNA synthetases” (Bioorg Med Chem Lett, 1999).

Experiments:
[1] = target: T1, Isoleucine--tRNA ligase, cytoplasmic (Homo sapiens, UniProt P41252); assay: Compound tested for the inhibition of human isoleucyl-tRNA synthetase
T1 sequence (P41252 whole entry): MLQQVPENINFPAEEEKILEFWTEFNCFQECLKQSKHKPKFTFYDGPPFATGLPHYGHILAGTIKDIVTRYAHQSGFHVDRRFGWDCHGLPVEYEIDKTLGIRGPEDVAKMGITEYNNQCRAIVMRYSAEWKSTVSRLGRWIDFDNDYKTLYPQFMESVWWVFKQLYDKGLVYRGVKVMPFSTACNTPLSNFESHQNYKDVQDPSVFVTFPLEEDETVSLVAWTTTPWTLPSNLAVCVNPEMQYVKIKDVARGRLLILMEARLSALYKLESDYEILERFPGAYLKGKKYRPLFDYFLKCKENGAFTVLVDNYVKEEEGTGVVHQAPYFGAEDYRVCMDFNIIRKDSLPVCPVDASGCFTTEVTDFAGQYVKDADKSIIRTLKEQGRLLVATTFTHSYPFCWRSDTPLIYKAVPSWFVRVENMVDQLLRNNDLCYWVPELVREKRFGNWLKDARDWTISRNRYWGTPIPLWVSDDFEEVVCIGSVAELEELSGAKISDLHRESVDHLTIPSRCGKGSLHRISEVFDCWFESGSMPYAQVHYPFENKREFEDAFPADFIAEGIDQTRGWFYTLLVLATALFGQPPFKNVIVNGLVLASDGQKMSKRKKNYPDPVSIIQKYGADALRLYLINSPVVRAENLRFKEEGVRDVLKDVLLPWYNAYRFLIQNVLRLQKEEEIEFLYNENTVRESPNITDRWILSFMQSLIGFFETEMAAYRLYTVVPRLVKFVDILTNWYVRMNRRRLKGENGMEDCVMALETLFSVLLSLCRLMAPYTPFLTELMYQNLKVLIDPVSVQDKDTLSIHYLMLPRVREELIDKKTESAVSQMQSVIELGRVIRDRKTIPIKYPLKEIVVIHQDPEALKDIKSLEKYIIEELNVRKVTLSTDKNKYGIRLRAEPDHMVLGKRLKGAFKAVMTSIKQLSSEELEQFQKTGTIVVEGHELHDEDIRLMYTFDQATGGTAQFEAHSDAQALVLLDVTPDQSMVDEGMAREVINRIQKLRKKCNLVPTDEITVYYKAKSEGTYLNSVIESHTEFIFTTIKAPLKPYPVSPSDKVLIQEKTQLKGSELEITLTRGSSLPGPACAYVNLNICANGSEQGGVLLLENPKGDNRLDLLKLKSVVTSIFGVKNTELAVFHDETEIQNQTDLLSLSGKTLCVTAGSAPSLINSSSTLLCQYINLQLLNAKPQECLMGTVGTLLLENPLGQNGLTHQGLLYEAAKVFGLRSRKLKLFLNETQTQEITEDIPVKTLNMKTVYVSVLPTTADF

Isoleucine--tRNA ligase = target: T2, Isoleucine--tRNA ligase (Staphylococcus aureus, UniProt P41972); assay: Compound tested for the inhibition of Staphylococcus aureus isoleucyl-tRNA synthetase
T2 sequence (P41972 whole entry): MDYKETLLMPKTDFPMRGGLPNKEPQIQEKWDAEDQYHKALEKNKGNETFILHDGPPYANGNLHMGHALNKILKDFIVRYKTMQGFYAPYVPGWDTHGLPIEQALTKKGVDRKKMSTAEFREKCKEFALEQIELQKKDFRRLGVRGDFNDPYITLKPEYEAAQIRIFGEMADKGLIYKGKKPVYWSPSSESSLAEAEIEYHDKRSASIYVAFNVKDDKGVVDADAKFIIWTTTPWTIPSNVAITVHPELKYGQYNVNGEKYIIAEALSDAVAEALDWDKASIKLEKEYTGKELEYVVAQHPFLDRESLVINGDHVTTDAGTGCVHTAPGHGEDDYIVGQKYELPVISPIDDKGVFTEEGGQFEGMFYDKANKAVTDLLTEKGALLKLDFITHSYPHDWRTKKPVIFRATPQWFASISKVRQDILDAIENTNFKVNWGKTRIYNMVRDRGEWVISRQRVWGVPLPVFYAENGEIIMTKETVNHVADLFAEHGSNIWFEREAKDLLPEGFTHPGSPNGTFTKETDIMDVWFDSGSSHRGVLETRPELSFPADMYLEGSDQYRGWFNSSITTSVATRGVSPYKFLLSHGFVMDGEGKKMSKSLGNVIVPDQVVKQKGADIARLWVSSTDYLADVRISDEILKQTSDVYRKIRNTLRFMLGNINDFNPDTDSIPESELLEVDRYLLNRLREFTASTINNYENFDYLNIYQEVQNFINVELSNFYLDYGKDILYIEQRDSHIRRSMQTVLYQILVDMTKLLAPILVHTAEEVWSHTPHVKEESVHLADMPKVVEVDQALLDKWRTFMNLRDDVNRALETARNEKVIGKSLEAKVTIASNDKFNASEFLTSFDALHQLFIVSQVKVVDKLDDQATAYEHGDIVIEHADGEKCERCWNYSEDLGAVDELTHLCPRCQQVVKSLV

S. aureus MRSA LeuRS = S. aureus MRSA LeuRS (Staphylococcus aureus, UniProt P67513); assay: Compound tested for the inhibition of Staphylococcus aureus Leucyl-tRNA synthetase
[2] = target: Leucine--tRNA ligase, cytoplasmic (Homo sapiens, UniProt Q9P2J5); assay: Compound tested for the inhibition of human Leucyl-tRNA synthetase
[3] = Selectivity ratio of human to that of Escherichia coli was determined for leucyl-tRNA synthetase
[4] = Selectivity ratio of human to that of Escherichia coli was determined for isoleucyl-tRNA synthetase

Chain of Leucine--tRNA ligase, cytoplasmic (Q9P2J5 whole entry): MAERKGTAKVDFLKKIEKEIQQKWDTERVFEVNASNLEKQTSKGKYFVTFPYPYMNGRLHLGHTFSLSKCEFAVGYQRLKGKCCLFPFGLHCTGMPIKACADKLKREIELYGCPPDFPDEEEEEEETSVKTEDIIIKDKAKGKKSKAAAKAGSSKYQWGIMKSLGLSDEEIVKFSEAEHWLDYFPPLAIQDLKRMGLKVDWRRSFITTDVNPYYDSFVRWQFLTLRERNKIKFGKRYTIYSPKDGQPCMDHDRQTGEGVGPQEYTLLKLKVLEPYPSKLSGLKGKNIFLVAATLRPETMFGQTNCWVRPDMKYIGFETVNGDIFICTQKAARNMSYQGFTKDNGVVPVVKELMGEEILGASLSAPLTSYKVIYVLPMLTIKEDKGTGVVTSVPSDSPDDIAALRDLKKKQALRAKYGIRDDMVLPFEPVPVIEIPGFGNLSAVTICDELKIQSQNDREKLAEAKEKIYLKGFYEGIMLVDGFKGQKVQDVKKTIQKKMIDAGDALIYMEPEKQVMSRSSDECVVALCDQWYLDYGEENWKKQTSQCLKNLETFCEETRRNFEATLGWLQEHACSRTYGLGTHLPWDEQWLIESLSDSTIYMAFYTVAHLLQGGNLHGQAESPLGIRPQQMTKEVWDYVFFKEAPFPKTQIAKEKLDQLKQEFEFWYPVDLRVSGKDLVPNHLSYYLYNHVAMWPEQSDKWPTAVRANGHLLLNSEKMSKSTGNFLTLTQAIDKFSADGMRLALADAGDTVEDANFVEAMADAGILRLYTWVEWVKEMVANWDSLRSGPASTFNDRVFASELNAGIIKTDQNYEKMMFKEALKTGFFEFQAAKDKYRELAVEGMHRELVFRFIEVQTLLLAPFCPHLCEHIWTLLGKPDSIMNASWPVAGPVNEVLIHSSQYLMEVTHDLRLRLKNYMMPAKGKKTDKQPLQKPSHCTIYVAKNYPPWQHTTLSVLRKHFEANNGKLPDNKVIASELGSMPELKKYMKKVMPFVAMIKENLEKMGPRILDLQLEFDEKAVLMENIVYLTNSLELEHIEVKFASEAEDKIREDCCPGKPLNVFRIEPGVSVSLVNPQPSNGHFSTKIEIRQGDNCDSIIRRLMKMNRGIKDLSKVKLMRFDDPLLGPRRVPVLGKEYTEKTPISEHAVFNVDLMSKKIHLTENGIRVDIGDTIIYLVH

Compound | IC50 [1] | IC50 (Isoleucine--tRNA ligase) | IC50 (S. aureus MRSA LeuRS) | IC50 [2] | Selectivity [3] | Selectivity [4]
CC[C@H](C)[C@H](N)C(=O)NS(=O)(=O)OC[C@H]1O[C@@H](c2nc(-c3ccccc3)cs2)[C@H](O)[C@@H]1O | 330 nM | 8000 nM |  |  |  | 
CCC(C)[C@H](N)C(=O)NS(=O)(=O)OC[C@H]1O[C@@H](c2nc(-c3ccc(OC)cc3)cs2)[C@H](O)[C@@H]1O (stereo not given in full) | 200 nM | 100 nM |  |  |  | 2
CCC(C)[C@H](N)C(=O)NS(=O)(=O)OC[C@H]1O[C@@H](c2nc(-c3cccc(OC)c3)cs2)[C@H](O)[C@@H]1O (stereo not given in full) | 34 nM | 50 nM |  |  |  | 2.3
CCC(C)[C@H](N)C(=O)NS(=O)(=O)OC[C@H]1O[C@@H](c2nc(-c3ccccc3OC)cs2)[C@H](O)[C@@H]1O (stereo not given in full) | 100 nM | 300 nM |  |  |  | 3.3
CCC(C)[C@H](N)C(=O)NS(=O)(=O)OC[C@H]1O[C@@H](c2nc(-c3cc(C#N)co3)cs2)[C@H](O)[C@@H]1O (stereo not given in full) | 120 nM | 240 nM |  |  |  | 1
CCC(C)[C@H](N)C(=O)NS(=O)(=O)OC[C@H]1O[C@@H](c2nc(-c3ccc4cc(OC)ccc4c3)cs2)[C@H](O)[C@@H]1O (stereo not given in full) | 400 nM | 130 nM |  |  |  | 4

More lines, now with the values ahead:

IC50 [1] | IC50 (Isoleucine--tRNA ligase) | IC50 (S. aureus MRSA LeuRS) | IC50 [2] | Selectivity [3] | Selectivity [4] | Compound
 |  | 90 nM | 730 nM | > 365 |  | CC(C)C[C@H](N)C(=O)NS(=O)(=O)OC[C@H]1O[C@@H](c2nc(CCc3ccccc3)cs2)[C@H](O)[C@@H]1O
300 nM | 40 nM |  |  |  | 10 | CCC(C)[C@H](N)C(=O)NS(=O)(=O)OC[C@H]1O[C@@H](c2nc(CCc3ccccc3)cs2)[C@H](O)[C@@H]1O (stereo not given in full)
 |  | 100 nM | 1150 nM | 192 |  | CC(C)C[C@H](N)C(=O)NS(=O)(=O)OC[C@H]1O[C@@H](c2nc(CCc3ccc(Oc4ccccc4)cc3)cs2)[C@H](O)[C@@H]1O
370 nM | 270 nM |  |  |  | 8.2 | CCC(C)[C@H](N)C(=O)NS(=O)(=O)OC[C@H]1O[C@@H](c2nc(-c3ccc(Oc4ccccc4)cc3)cs2)[C@H](O)[C@@H]1O (stereo not given in full)
1020 nM | 120 nM |  |  |  | 9.3 | CCC(C)[C@H](N)C(=O)NS(=O)(=O)OC[C@H]1O[C@@H](c2nc(CCc3ccc(Oc4ccccc4)cc3)cs2)[C@H](O)[C@@H]1O (stereo not given in full)
 |  | > 54 nM | 600 nM | 375 |  | CC(C)C[C@H](N)C(=O)NS(=O)(=O)OC[C@H]1O[C@@H](c2nc(-c3ccc(Oc4ccccc4)cc3)cs2)[C@H](O)[C@@H]1O
